Measured values from patent EP1598069A2, “Pharmaceutical combination of ethinylestradiol and drospirenone for use as a contraceptive” (Schering Aktiengesellschaft, priority 1999, dated 2001).

Tests used:
[1] = human, in vivo, po
Description: 42 healthy women between 18 and 35 years of age were included in an open-label crossover study after their informed consent had been obtained. The aim of the study was to investigate the relative bioavailability of drospirenone and ethinylestradiol from a tablet formulation containing 3 mg drospirenone and 0.03 mg ethinylestradiol with reference to an oral suspension containing 6 mg of drospirenone and 0.06 mg ethinylestradiol per vial.
The bioavailability was determined using serum concentrations of each active agent as parameters.

[2] = Absolute bioavailability of drospirenone after oral administration; format: in vivo, women
[3] = Solubility in water and aqueous buffers (statement); format: physicochemical; conditions: drospirenone: in water and aqueous buffers at various pH values
[4] = Chemical stability under acid and alkaline conditions (statement); format: physicochemical

relative bioavailability [1] | bioavailability ([2]; human, in vivo, oral administration of a microcrystalline suspension containing 3.13 mg drospirenone to 6 postmenopausal women) | absolute bioavailability ([2]; oral administration of 2 mg drospirenone to 8 young healthy women) | solubility [3] | stability under acid conditions ([4]; acid conditions) | stability under alkaline conditions ([4]; alkaline conditions) | Structure (SMILES)
107% | 85% | 76%±13% | sparingly soluble | rearranged to an inactive isomer | hydrolysed | C[C@]12CCC(=O)C=C1[C@@H]1C[C@@H]1[C@H]1[C@@H]3[C@@H]4C[C@@H]4[C@@]4(CCC(=O)O4)[C@@]3(C)CC[C@@H]12 [drospirenone, 6β,7β;15β,16β-dimethylene-3-oxo-17α-pregn-4-ene-21,17-carbolactone]
117% | – | – | sparingly soluble | – | – | C#C[C@]1(O)CC[C@H]2[C@@H]3CCc4cc(O)ccc4[C@H]3CC[C@@]21C [ethinylestradiol, 17α-ethinylestradiol]
